PMC10778198, “First-in-Human Dose-Escalation Study of the Novel Oral Depsipeptide Class I-Targeting HDAC Inhibitor Bocodepsin (OKI-179) in Patients with Advanced Solid Tumors” (Cancers, 2023)
Read-outs that look alike come from different tables or passages of the source.

How the values were obtained:
[1] = plasma pharmacokinetics by LC-MS/MS in patients; type: in vivo, human; settings: for Tmax: read-out: Tmax of OKI-006 (Free)
Description: Blood samples were collected immediately prior to the first dose on cycle 1 and day 1, and then at 0.25, 0.5, 1, 2, 4, 8, and 24 h after taking OKI-179 on days 1 and 15. Additional samples were collected pre-dose and 2 and 4 h after OKI-179 administration on day 18 in later cohorts. Blood samples were stabilized with sodium fluoride and formic acid immediately after collection to arrest the additional conversion of the prodrug OKI-179 to OKI-006. Plasma was further stabilized using ascorbic acid prior to low-temperature storage.
Plasma concentrations of OKI-179 and OKI-006 were analyzed using validated liquid chromatography-mass spectrometry (LC-MS/MS) (Quintara Discovery Inc., Hayward, CA, USA). OKI-006 contains a free thiol moiety that can reversibly react with endogenous molecules in the blood and tissue, resulting in “bound” OKI-006. The unreacted OKI-006 is considered “free”. As bound OKI-006 can reversibly convert to free OKI-006 in vivo, both the free and “total” (free plus bound) concentrations of OKI-006 are considered pharmacologically relevant and were therefore quantified as part of this study. Bioanalytically, the total OKI-006 was measured by chemically converting all bound OKI-006 to free OKI-006 prior to analysis using the free OKI-006 bioanalytical method.
The AUClast was calculated from time zero to the time of the last quantifiable concentration for OKI-179, free OKI-006, and total OKI-006.

[2] = system: HDAC1; design: method as in PMID 34965958; settings: cell-free; cited from earlier work
[3] = system: HDAC2; design: method as in PMID 34965958; settings: cell-free; cited from earlier work
[4] = system: HDAC3; design: method as in PMID 34965958; settings: cell-free; cited from earlier work
[5] = system: HDAC8; design: method as in PMID 34965958; settings: cell-free; cited from earlier work
[6] = system: Class IIa HDACs; design: method as in PMID 34965958; settings: cited from earlier work
[7] = OKI-179 300-mg 5:2, Cycle 1 Day 1, geometric mean
[8] = OKI-179 300-mg 5:2, Cycle 1 Day 15, geometric mean

- AUClast of OKI-006 (Free) [1, 7]: 2790 ng·h/mL
- MRAUC, OKI-006 (Free) to OKI-179 metabolite ratio based on AUClast [1, 7]: 13.3
- AUClast of OKI-006 (Free) [1, 8]: 3180 ng·h/mL
- Cmax of OKI-006 (Free) [1, 8]: 2220 ng/mL
- MRAUC, OKI-006 (Free) to OKI-179 metabolite ratio based on AUClast [1, 8]: 10.3
- Tmax ([1]; human, plasma, oral, 300 mg, OKI-179 300-mg 5:2, Cycle 1 Day 1, median): 41.5 min
- Tmax ([1]; human, plasma, oral, 300 mg, OKI-179 300-mg 5:2, Cycle 1 Day 15, median): 56 min
- half-life ([1]; human, plasma, oral, 300 mg, OKI-179 300-mg 5:2, Cycle 1 Day 15, median, read-out: t1/2 of OKI-006 (Free) (converted)): 206 min
SMILES: CC(C)[C@@H]1NC(=O)C(C)(C)NC(=O)c2csc(n2)CNC(=O)C[C@@H](/C=C/CCS)OC1=O [OKI-006]
- Cmax and AUC versus preclinical threshold for efficacy ([1]; OKI-179 doses of 200 mg or greater): exceeded the preclinical threshold for efficacy
- IC50 [2]: 1.2 nM
- IC50 [3]: 2.4 nM
- IC50 [4]: 2 nM
- IC50 [5]: 47 nM
- IC50 [6]: > 1000 nM
